Assay results published in ChEMBL document CHEMBL5385851, “Natural quinazolinones: From a treasure house to promising anticancer leads” (Eur J Med Chem, 2023).
≈ marks a conversion by molar mass, not a printed value.

Experiments:
A549 [1] = experiment: Cytotoxicity against human A549 cells assessed as reduction in cell viability incubated for 72 hrs by MTT assay; type: functional, cell-based; conditions: A549, 72 h
Hs-578T = experiment: Cytotoxicity against human Hs-578T cells assessed as cell growth inhibition; type: functional, cell-based
NCI-H460 [2] = experiment: Cytotoxicity against human NCI-H460 cells assessed as cell growth inhibition; type: functional
U-251 [3] = experiment: Growth inhibition of human U-251 cells incubated for 48 hrs by SRB assay; type: functional
ACHN [4] = experiment: Growth inhibition of human ACHN cells incubated for 48 hrs by SRB assay; type: functional
MGC-803 [5] = experiment: Antiproliferative activity against human MGC-803 cells assessed as reduction in cell viability by MTT assay; type: functional, cell-based
786-0 = experiment: Cytotoxicity against human 786-0 cells assessed as cell growth inhibition; type: functional
A549 [6] = experiment: Cytotoxicity against human A549 cells assessed as cell growth inhibition; type: functional
MGC-803 [7] = experiment: Cytotoxicity against human MGC-803 assessed as inhibition of cell growth by MTT assay; type: functional, cell-based
U-251 [8] = experiment: Cytotoxicity against human U-251 cells assessed as cell growth inhibition; type: functional
DU-145 = experiment: Cytotoxicity against human DU-145 cells assessed as cell growth inhibition; type: functional
MCF7 = experiment: Cytotoxicity against human MCF7 cells assessed as reduction in cell growth; type: functional, cell-based
NCI-H460 [9] = experiment: Cytotoxicity against human NCI-H460 cells assessed reduction in cell viability; type: functional, cell-based
SF-268 = experiment: Antiproliferative activity against human SF-268 cells assessed as reduction in cell growth incubated for 48 hrs by SRB assay; type: functional, cell-based; conditions: SF-268, 48 h
ACHN [10] = experiment: Growth inhibition of human ACHN cells; type: functional
L1210 = experiment: Antiproliferative activity against mouse L1210 cells assessed as cell growth inhibition measured after 72 hrs by MTT assay; type: functional, cell-based; conditions: L1210, 72 h
HL-60 = experiment: Cytotoxicity against human HL-60 cells assessed as cell growth inhibition by MTT assay; type: functional

With `O=c1c2ccccc2nc2n1C(O)c1cc3ccccc3nc1-2` (configuration not stated) as the compound, how does the IC50 (A549 [1]) read?
Its IC50 is 9 µg/mL (≈ 29.9 µM).

For `COC1c2cc3ccccc3nc2-c2nc3ccccc3c(=O)n21` (configuration not stated), which IC50 (Hs-578T) is on record?
The IC50 was 9 µg/mL (≈ 28.5 µM).

`O=c1c2ccccc2nc2n1CCc1c-2[nH]c2ccc(Br)cc12` was tested. Which GI50 (NCI-H460 [2]) did it give?
Its GI50 is 1550 nM.

Which results are given for `CN1c2ccccc2C(=O)N2CCc3c([nH]c4ccc(Br)cc34)C21` (configuration not stated)?
GI50 (U-251 [3]): 300 nM; GI50 (ACHN [4]): 400 nM

How did the IC50 (MGC-803 [5]) turn out when `O=c1c2ccccc2nc2n1CC[C@@H]2O` was run?
Its IC50 is 94500 nM.

What does the source list for `COc1ccc2c3c([nH]c2c1)-c1nc2ccccc2c(=O)n1CC3`?
GI50 (786-0): 310 nM; GI50 (A549 [6]): 750 nM

Which IC50 (MGC-803 [7]) does the source give for `O=c1c2ccccc2nc2n1CC[C@@H]2O[C@@H]1O[C@H](CO)[C@@H](O)[C@H](O)[C@H]1O` here?
The IC50 was 84100 nM.

`O=C1c2ccccc2NC2c3[nH]c4ccccc4c3CCN12` (configuration not stated) was tested. Which GI50 (U-251 [8]) did it give?
The GI50 was 20 nM.

What about the GI50 (DU-145) of the same compound?
Its GI50 is 200 nM.

What does the source list for `CC(=O)C[C@]1(O)c2ccccc2-n2c1nc1ccccc1c2=O`?
IC50 (MCF7): 33800 nM; IC50 (NCI-H460 [9]): 27000 nM; IC50 (SF-268): 43900 nM

How did the GI50 (ACHN [10]) turn out when `CSc1ccc2[nH]c3c(c2c1)CCN1C(=O)c2ccccc2NC31` (configuration not stated) was run?
The GI50 was 80 nM.

Which IC50 (L1210) does the source give for `O=c1c2ccccc2nc2n1Cc1cc3cccnc3nc1-2` here?
Its IC50 is 130 nM.

With `O=c1c2ccccc2nc2n1CCc1c-2[nH]c2c(Cl)c(Cl)ccc12` as the compound, how does the GI50 (HL-60) read?
The GI50 was 150 nM.
